Laboratory results as given in paper PMC8296573, “Synthesis and Biological Evaluation of Fingolimod Derivatives as Antibacterial Agents” (ACS Omega, 2021).
In brackets after ≈: the same amount, converted by molar mass. Like-named read-outs stand apart in the source and are kept apart here.

Tests used:
S. aureus ATCC 25923 [1] = test: Antibacterial activity, pre-exposure (planktonic cells and biofilm formation); format: cell-based, Staphylococcus aureus; conditions: for MIC / inhibition at 5 µM / inhibition at 10 µM / inhibition at 15 µM / inhibition at 25 µM: Staphylococcus aureus, ATCC25923; for inhibition at 5 µM / inhibition at 10 µM / inhibition at 15 µM / inhibition at 25 µM / Average inhibition %, biofilms viability / Average inhibition %, planktonic cells viability: pre-exposure, ± SD
Outline: (§1)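 Bacteria and compound were co-incubated from the start for 18 h at 37 °C, 220 rpm. Planktonic cells scored by turbidity plus resazurin reduction; washed biofilms scored by 20 μM resazurin (30, 60, 90 min for S. aureus, A. baumannii, P. aeruginosa) and ethanol-fixed crystal violet staining.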

S. aureus ATCC 25923 [2] = test: Antibacterial activity, post-exposure on preformed 18-h-old biofilms; format: cell-based, Staphylococcus aureus; conditions: ± SD; for inhibition at 25 µM / inhibition at 50 µM / inhibition at 100 µM / inhibition at 200 µM: Staphylococcus aureus; for inhibition at 25 µM: ATCC25923, 25 µM; for inhibition at 50 µM: ATCC25923, 50 µM; for inhibition at 100 µM: ATCC25923, 100 µM; for inhibition at 200 µM: ATCC25923, 200 µM
Outline: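 Compounds were applied to preformed 18-h biofilms after medium change and left 24 h. Read-outs: planktonic OD plus resazurin fluorescence (20 μM), biofilm metabolic activity by resazurin 30 min at 37 °C, then biomass by crystal violet absorbance at 595 nm after ethanol fixation.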

A. baumannii NCTC 13423 = test: Antibacterial activity, pre-exposure; format: cell-based, Acinetobacter baumannii; conditions: for Average inhibition %, biofilms viability / Average inhibition %, planktonic cells viability / inhibition at 10 µM / inhibition at 15 µM / inhibition at 25 µM / inhibition at 50 µM: A. baumannii NCTC 13423, pre-exposure, ± SD; for inhibition at 10 µM / inhibition at 15 µM / inhibition at 25 µM / inhibition at 50 µM / MIC: Acinetobacter baumannii, NCTC13423
Outline: as §1

P. aeruginosa ATCC 9027 = test: Antibacterial activity, pre-exposure; format: cell-based, Pseudomonas aeruginosa; conditions: for Average inhibition %, biofilms viability / Average inhibition %, planktonic cells viability / inhibition at 50 µM / inhibition at 100 µM / inhibition at 150 µM / inhibition at 200 µM: P. aeruginosa ATCC 9027, pre-exposure, ± SD; for inhibition at 50 µM / inhibition at 100 µM / inhibition at 150 µM / inhibition at 200 µM: Pseudomonas aeruginosa, ATCC9027
Outline: as §1

[3] = 10 µM, read-out: Average inhibition %, biofilms biomass
[4] = 10 µM, read-out: Average inhibition %, planktonic cells turbidity
[5] = 15 µM, read-out: Average inhibition %, biofilms biomass
[6] = 15 µM, read-out: Average inhibition %, planktonic cells turbidity
[7] = 25 µM, read-out: Average inhibition %, biofilms biomass
[8] = 25 µM, read-out: Average inhibition %, planktonic cells turbidity
[9] = read-out: Average inhibition %, biofilms biomass
[10] = read-out: Average inhibition %, planktonic cells turbidity
[11] = 50 µM, read-out: Average inhibition %, biofilms biomass
[12] = 50 µM, read-out: Average inhibition %, planktonic cells turbidity

CCCCCCCCc1ccc2nc(CCC(N)(CO)CO)ccc2c1 [Compound 80, 2-Amino-2-[2-(6-octylquinolin-2-yl)ethyl]propane-1,3-diol]
MIC (S. aureus ATCC 25923 [1]; lowest concentration with no visible growth (>90% inhibition of turbidity and viability of planktonic cells), 18 h, read-out: MIC S. aureus ATCC 25923): 10 µM (≈ 3.59 µg/mL)
inhibition at 5 µM (S. aureus ATCC 25923 [1]; 5 µM, read-out: Average inhibition %, biofilms biomass): 24.2 ± 6.6%
inhibition at 5 µM (S. aureus ATCC 25923 [1]; 5 µM, read-out: Average inhibition %, planktonic cells turbidity): 43 ± 17%
inhibition at 10 µM (S. aureus ATCC 25923 [1]; [3]): 97.6 ± 1%
inhibition at 10 µM (S. aureus ATCC 25923 [1]; [4]): 99 ± 0.7%
inhibition at 15 µM (S. aureus ATCC 25923 [1]; [5]): 97.3 ± 0.6%
inhibition at 15 µM (S. aureus ATCC 25923 [1]; [6]): 99.5 ± 0.3%
inhibition at 25 µM (S. aureus ATCC 25923 [1]; [7]): 92.3 ± 1.5%
inhibition at 25 µM (S. aureus ATCC 25923 [1]; [8]): 99.1 ± 0.3%
MIC (S. aureus ATCC 25923 [1]; read-out: MIC (S. aureus)): 10 µM (≈ 3.59 µg/mL)
Average inhibition %, biofilms viability (S. aureus ATCC 25923 [1]; 5 µM): 26.7 ± 15.1%
Average inhibition %, planktonic cells viability (S. aureus ATCC 25923 [1]; 5 µM): 13.9 ± 22.4%
Average inhibition %, biofilms viability (S. aureus ATCC 25923 [1]; 10 µM): 99.2 ± 1.4%
Average inhibition %, planktonic cells viability (S. aureus ATCC 25923 [1]; 10 µM): 99.4 ± 0%
Average inhibition %, biofilms viability (S. aureus ATCC 25923 [1]; 15 µM): 99.5 ± 0.5%
Average inhibition %, planktonic cells viability (S. aureus ATCC 25923 [1]; 15 µM): 99.5 ± 0%
Average inhibition %, biofilms viability (S. aureus ATCC 25923 [1]; 25 µM): 99.4 ± 0.3%
Average inhibition %, planktonic cells viability (S. aureus ATCC 25923 [1]; 25 µM): 99.7 ± 0%
Average inhibition %, biofilms viability (S. aureus ATCC 25923 [2]; 25 µM): 13.8 ± 11.7%
Average inhibition %, planktonic cells viability (S. aureus ATCC 25923 [2]; 25 µM): 17.5 ± 26.7%
Average inhibition %, biofilms viability (S. aureus ATCC 25923 [2]; 50 µM): 29.8 ± 10.2%
Average inhibition %, planktonic cells viability (S. aureus ATCC 25923 [2]; 50 µM): 21.5 ± 33.1%
Average inhibition %, biofilms viability (S. aureus ATCC 25923 [2]; 100 µM): 48.6 ± 5.2%
Average inhibition %, planktonic cells viability (S. aureus ATCC 25923 [2]; 100 µM): 81 ± 8%
Average inhibition %, biofilms viability (S. aureus ATCC 25923 [2]; 200 µM): 48.4 ± 12%
Average inhibition %, planktonic cells viability (S. aureus ATCC 25923 [2]; 200 µM): 93.2 ± 1.3%
inhibition at 25 µM (S. aureus ATCC 25923 [2]; [9]): 25.1 ± 16.4%
inhibition at 25 µM (S. aureus ATCC 25923 [2]; [10]): 31.7 ± 26.5%
inhibition at 50 µM (S. aureus ATCC 25923 [2]; [9]): 50.2 ± 3.2%
inhibition at 50 µM (S. aureus ATCC 25923 [2]; [10]): 26 ± 39.1%
inhibition at 100 µM (S. aureus ATCC 25923 [2]; [9]): 61.9 ± 7.7%
inhibition at 100 µM (S. aureus ATCC 25923 [2]; [10]): 64.3 ± 18.5%
inhibition at 200 µM (S. aureus ATCC 25923 [2]; [9]): 51.5 ± 9.6%
inhibition at 200 µM (S. aureus ATCC 25923 [2]; [10]): 73.4 ± 9.8%
Average inhibition %, biofilms viability (A. baumannii NCTC 13423; 10 µM): 0 ± 0%
Average inhibition %, planktonic cells viability (A. baumannii NCTC 13423; 10 µM): 7.2 ± 5.2%
Average inhibition %, biofilms viability (A. baumannii NCTC 13423; 15 µM): 71.9 ± 26.2%
Average inhibition %, planktonic cells viability (A. baumannii NCTC 13423; 15 µM): 98.9 ± 0.3%
Average inhibition %, biofilms viability (A. baumannii NCTC 13423; 25 µM): 101.6 ± 1.6%
Average inhibition %, planktonic cells viability (A. baumannii NCTC 13423; 25 µM): 99.6 ± 0.1%
Average inhibition %, biofilms viability (A. baumannii NCTC 13423; 50 µM): 101.8 ± 1.3%
Average inhibition %, planktonic cells viability (A. baumannii NCTC 13423; 50 µM): 99.5 ± 0.2%
inhibition at 10 µM (A. baumannii NCTC 13423; [3]): 1.6 ± 2.8%
inhibition at 10 µM (A. baumannii NCTC 13423; [4]): 0.8 ± 1.5%
inhibition at 15 µM (A. baumannii NCTC 13423; [5]): 53 ± 33.4%
inhibition at 15 µM (A. baumannii NCTC 13423; [6]): 96.4 ± 3%
inhibition at 25 µM (A. baumannii NCTC 13423; [7]): 84.3 ± 5.9%
inhibition at 25 µM (A. baumannii NCTC 13423; [8]): 99 ± 0.9%
inhibition at 50 µM (A. baumannii NCTC 13423; [11]): 74.7 ± 11.4%
inhibition at 50 µM (A. baumannii NCTC 13423; [12]): 98.8 ± 0.9%
MIC (A. baumannii NCTC 13423; pre-exposure, Inactive = no activity up to 50 μM, > = some inhibition but no MIC reached, read-out: MIC A. baumannii NCTC 13423): 15 to 25 µM (≈ 5.38 to 8.96 µg/mL)
MIC (A. baumannii NCTC 13423; supplementary molecular formula strings sheet, read-out: MIC (A. baumannii)): 15 to 25 µM (≈ 5.38 to 8.96 µg/mL)
Average inhibition %, biofilms viability (P. aeruginosa ATCC 9027; 50 µM): 9.8 ± 12.2%
Average inhibition %, planktonic cells viability (P. aeruginosa ATCC 9027; 50 µM): 39.9 ± 11%
Average inhibition %, biofilms viability (P. aeruginosa ATCC 9027; 100 µM): 10.5 ± 10%
Average inhibition %, planktonic cells viability (P. aeruginosa ATCC 9027; 100 µM): 46.1 ± 11.6%
Average inhibition %, biofilms viability (P. aeruginosa ATCC 9027; 150 µM): 14.3 ± 12.2%
Average inhibition %, planktonic cells viability (P. aeruginosa ATCC 9027; 150 µM): 22.9 ± 1.7%
Average inhibition %, biofilms viability (P. aeruginosa ATCC 9027; 200 µM): 15.3 ± 15.9%
Average inhibition %, planktonic cells viability (P. aeruginosa ATCC 9027; 200 µM): 33.1 ± 16.1%
inhibition at 50 µM (P. aeruginosa ATCC 9027; [11]): 5.2 ± 5.2%
inhibition at 50 µM (P. aeruginosa ATCC 9027; [12]): 48 ± 11.1%
inhibition at 100 µM (P. aeruginosa ATCC 9027; 100 µM, read-out: Average inhibition %, biofilms biomass): 0%
inhibition at 100 µM (P. aeruginosa ATCC 9027; 100 µM, read-out: Average inhibition %, planktonic cells turbidity): 55.5 ± 5.2%
inhibition at 150 µM (P. aeruginosa ATCC 9027; 150 µM, read-out: Average inhibition %, biofilms biomass): 12.1 ± 10.7%
inhibition at 150 µM (P. aeruginosa ATCC 9027; 150 µM, read-out: Average inhibition %, planktonic cells turbidity): 42.1 ± 13.6%
inhibition at 200 µM (P. aeruginosa ATCC 9027; 200 µM, read-out: Average inhibition %, biofilms biomass): 12.3 ± 19.1%
inhibition at 200 µM (P. aeruginosa ATCC 9027; 200 µM, read-out: Average inhibition %, planktonic cells turbidity): 55.3 ± 0.9%
MIC P. aeruginosa ATCC 9027 (P. aeruginosa ATCC 9027; pre-exposure, Inactive = no activity up to 200 μM, > = some inhibition but no MIC reached): Inactive
